Data: patent publication US20200405697A1, “Antitumor Agent” (Taiho Pharmaceutical Co., Ltd, priority 2017, published 2020)

System: MV-4-11
Experiment: Antitumor effect in human-derived blood cancer cell line (MV-4-11) subcutaneous transplantation model (in vivo)
Set-up: species or system nude mouse (BALB/cA Jcl-nu/nu)
Details: oral, 100 mg/kg/day once per day for 14 days; RTV vs control group, Student-t test, p<0.05
Protocol: A human-derived blood cancer cell line MV-4-11 was transplanted subcutaneously into a nude mouse (BALB/cA Jcl-nu/nu, CLEA Japan, Inc.), and at the time when the tumor volume of the nude mouse on which the engrafted tumor reached 100 to 300 mm^3, four mice were assigned to each group by random stratification so that the average of the tumor volumes of each group was uniform (day 0), and the Example compound was orally administered daily at 100 mg/kg/day once per day for 14 days. Example Compound dosing solutions were prepared using 0.5% HPMC.
An electric balance for animals was used in body weight measurement. Rate of change in body weight on day n (BWCn) from body weight on day n (BWn) was calculated according to the following equation.
Rate of change in body weight BWCn (%)=(BWn−BW0)/BW0×100
Tumor volume (TV) was calculated according to the following equation by sandwiching and measuring the major axis and the minor axis with a digital caliper.
Tumor volume (mm^3)=Major axis (mm)×Minor axis (mm)×Minor axis (mm)/2
In order to compare the chronological transition of proliferation of tumor for the administration of each compound, relative tumor volume (RTV) setting the tumor volume at the time of grouping as 1 as the tumor proliferation rate was calculated according to the following formula, and the transition of the average value of RTV of each individual are shown in FIGS. 1 to 4.
RTV=(tumor volume at the day of tumor volume measurement)/(tumor volume at the time of the grouping)

Compound: Cc1ccc(F)c([C@@H](C)[C@H](NS(=O)(=O)c2ccc(Br)cc2C(N)=O)c2n[nH]c(=O)o2)c1C [Example 1, 5-bromo-2-(N-((1 S,2R)-2-(6-fluoro-2,3-dimethylphenyl)-1-(5-oxo-4,5-dihydro-1,3,4-oxadiazol-2-yl)propyl)sulfamoyl)benzamide]
- antitumor effect (relative tumor volume, RTV): antitumor effect
